Laboratory results from patent publication US12454703B2, “Controllable transcription” (Cambridge Enterprise Limited (GB/GB), priority 2016, dated 2025).

Tests used:
induced myocytes = assay: Contraction of induced skeletal myocytes; assay type: cell-based, human; settings: nanomolar concentrations
[1] = test system: EGFPd2 homozygous sOPTiKO hESCs; assay: Inducible CRISPR/Cas9 knockout of EGFPd2 reporter in hESCs; assay type: cell-based, human
Description: For single site OPTIKO, AAVS1 targeting was performed by nucleofection. hESCs pre-treated for 16 h with 10 μM Y-27632 (Tocris) were dissociated to clumps of 2-8 cells using Accutase (Gibco), and 2×10^6 cells were nucleofected in 100 μl with a total of 12 μg of DNA (4 μg each for the two ZFN plasmids, and 2 μg each for the two targeting vectors) using the Lonza P3 Primary Cell 4D-Nucleofector X Kit and the cycle CA-137 on a Lonza 4D-Nucleofector System, all according to manufacturer's instructions. Nucleofected hESCs were plated onto a feeder layer of irradiated DR4 (puromycin and neomycin resistant) mouse embryonic fibroblasts and cultured in KSR media supplemented with 4 ng ml-1 FGF2 and 10 μM Y-27632 (this last only for the first 24 h). After 4 days, hPSC colonies carrying both puromycin and neomycin resistance gene were selected for 7-10 days with 25 μg ml-1 of Geneticin (G418 Sulfate, Gibco) and 0.5 μg ml-1 Puromycin. Individual clones were then picked and expanded in feeder-free conditions.
Unless otherwise described in the figure legends or Examples, tetracycline hydrochloride (sigma-Aldrich) was used at 1 μg ml^−1 to induce gene knockdown or knockout. Induction of neurons Pluripotent OPTi-NGN2 cells were dissociated into single cells with TrypLE and plated onto Matrigel (35 μg/cm^2, Scientific Laboratory Supplies) coated dishes at a density of 75.000 cells per well of a 12 well plate. […] After 2 days of induction, the medium was switched to Neurobasal-medium supplemented with Glutamax (100×), B27 (50×, Gibco), BDNF (10 ng/ml, Peprotech), NT3 (10 ng/ml, R&D Systems), Penicillin/Streptomycin (1%), and doxycycline (1 μg/ml).

Description for OPTi-MYOD1 hPSCs: Pluripotent OPTi-MYOD1 cells were dissociated into single cells with TrypLE and plated onto gelatine/MEF-medium coated dishes at a density of 100.000 cells per well of a 12 well plate. Forward programming was initiated 24-48 hours after the split. […] After 5 days of induction, the medium was supplemented with CHIR99021 (3 μM, Tocris) and heat-inactivated horse serum (2%, Gibco) to enhance maturation.
For analysis of EGFP expression cells were harvested with TrypLE Select (Gibco) for 5-10 minutes at 37° C. to obtain a single cell suspension. Following a wash with PBS, cells were resuspended in ice-cold PBS supplemented with DAPI (10 μg/ml), and incubated for 5 minutes on ice. Cells were analyzed using a Cyan ADP flow-cytometer to determine the levels of EGFP expression of viable cells (DAPI negative). For staining and analysis of myosin heavy chain expression cells were harvested with TrypLE Select (as for EGFP expression analysis), washed once with PBS, and fixed and permeabilized with Cytofix/Cytoperm solution (BD Biosciences). Subsequently, cells were washed and blocked in Perm/Wash buffer (BD Biosciences) supplemented with 3% bovine serum albumin (BSA) at +4° C. overnight. […] After three washes with Perm/Wash buffer cells were analyzed with a Cyan ADP flowcytometer to determine the levels of MHC expression. […]

CC1=C(/C=C/C(C)=C/C=C/C(C)=C/C(=O)O)C(C)(C)CCC1 [all-trans retinoic acid]
conversion into myogenin and myosin heavy chain (MHC) double-positive myocytes (OPTi-MYOD1 hPSCs; in conjunction with MYOD1 overexpression, by day 5 after induction): rapid and near-complete conversion
nature of the RA effect on myocyte conversion (OPTi-MYOD1 hPSCs; mediated through RA-receptor isoforms RARa and RARB): concentration dependent

C[N+](C)(C)CCOC(N)=O [carbachol]
muscle fiber contraction (induced myocytes): complete muscle fiber contraction

CN(C)[C@@H]1C(O)=C(C(N)=O)C(=O)[C@@]2(O)C(O)=C3C(=O)c4c(O)cccc4[C@@](C)(O)[C@H]3C[C@@H]12 [tetracycline]
reduction in EGFPd2 fluorescence ([1]; five days following tetracycline induction, EGFPd2 homozygous cells): 50%
knockout ([1]; optimal gRNA sequence, 2 days of induction): up to 90%
EGFPd2 homozygous cells with full loss of EGFPd2 fluorescence ([1]; prolonged treatment with tetracycline): up to 75%
knockout efficiency ([1]; simultaneous induction of three copies of the same gRNA): 95%
